From ChEMBL document CHEMBL5244247, “Natural and synthetic coumarins as antileishmanial agents: A review” (Eur J Med Chem, 2020)
Values after ≈ are worked out from the molar mass of the structure shown.

How the values were obtained:
[1] = system: Leishmania panamensis; assay: Antileishmanial activity against intracellular Leishmania panamensis amastigotes infected in human U-937 cells assessed as inhibition at 20 ug/mL incubated for 72 hrs by flow cytometry relative to control; type: functional
[2] = system: Leishmania major; assay: Antileishmanial activity against promastigote form of Leishmania major assessed as inhibition incubated for 48 hrs by MTT assay; type: functional, organism-based
[3] = system: Leishmania donovani; assay: Antileishmanial activity against promastigote form of Leishmania donovani; type: functional, organism-based
[4] = system: Leishmania chagasi; assay: Antileishmanial activity against promastigote form of Leishmania chagasi; type: functional, organism-based
[5] = system: Leishmania major; assay: Antileishmanial activity against promastigote form of Leishmania major; type: functional, organism-based
[6] = system: Leishmania mexicana; assay: Antileishmanial activity against promastigote form of Leishmania mexicana; type: functional, organism-based
[7] = system: Leishmania amazonensis; assay: Antileishmanial activity against promastigote form of Leishmania amazonensis assessed as parasite growth inhibition incubated for 72 hrs by regression analysis; type: functional, organism-based
[8] = system: Leishmania amazonensis; assay: Antileishmanial activity against intracellular Leishmania amazonensis MHOM/BR/75/Josefa amastigotes infected in BALB/c mouse peritoneal macrophages assessed as parasite growth inhibition incubated for 24 hrs by regression analysis; type: functional, organism-based; conditions: Peritoneal macrophage
[9] = Selectivity index, ratio of CC50 for cytotoxicity against mouse J774G8 cells to IC50 for antileishmanial activity against intracellular Leishmania amazonensis MHOM/BR/75/Josefa amastigotes infected in BALB/c mouse peritoneal macrophages; type: toxicity, cell-based; conditions: read-out: Ratio CC50/IC50
[10] = system: Leishmania major; assay: Antileishmanial activity against promastigote form of Leishmania major assessed as inhibition at 100 uM incubated for 72 hrs by MTT assay relative to control; type: functional
[11] = system: Leishmania major; assay: Antileishmanial activity against promastigote form of Leishmania major assessed as inhibition at 0.1 uM incubated for 72 hrs by MTT assay relative to control; type: functional
[12] = system: Leishmania amazonensis; assay: Antileishmanial activity against promastigote form of Leishmania amazonensis assessed as parasite growth inhibition incubated for 72 hrs by neubauer counting chamber analysis; type: functional, organism-based
[13] = system: Leishmania amazonensis; assay: Antileishmanial activity against amastigote form of Leishmania amazonensis assessed as parasite growth inhibition; type: functional, organism-based
[14] = system: Leishmania donovani; assay: Antileishmanial activity against amastigote form of Leishmania donovani; type: functional, organism-based
[15] = system: Leishmania major; assay: Antileishmanial activity against promastigote form of Leishmania major assessed as inhibition of parasite growth by MTT colorimetric cell viability assay; type: functional, organism-based
[16] = system: Leishmania braziliensis; assay: Antileishmanial activity against promastigote form of Leishmania braziliensis; type: functional, organism-based; conditions: Leishmania braziliensis
[17] = target: Acetylcholinesterase (Homo sapiens) (UniProt P22303); assay: Inhibition of AChE (unknown origin) assessed as inhibition zone by Ellman's colorimetric method
[18] = system: Leishmania amazonensis; assay: Antileishmanial activity against promastigote form of Leishmania amazonensis; type: functional, organism-based
[19] = system: Leishmania infantum; assay: Antileishmanial activity against promastigote form of Leishmania infantum; type: functional, organism-based
[20] = system: Leishmania donovani; assay: Antileishmanial activity against amastigote form of Leishmania donovani at 50 uM assessed as inhibition of parasite growth relative to control; type: functional
[21] = system: Leishmania major; assay: Antileishmanial activity against promastigote form of Leishmania major assessed as inhibition incubated for 72 hrs by MTT assay; type: functional, organism-based
[22] = system: Peritoneal macrophage; assay: Cytotoxicity against mouse peritoneal macrophage; type: functional, cell-based
[23] = system: Leishmania infantum; assay: Antileishmanial activity against amastigote form of Leishmania infantum; type: functional, organism-based

Chain of Acetylcholinesterase (Homo sapiens) (P22303 whole entry): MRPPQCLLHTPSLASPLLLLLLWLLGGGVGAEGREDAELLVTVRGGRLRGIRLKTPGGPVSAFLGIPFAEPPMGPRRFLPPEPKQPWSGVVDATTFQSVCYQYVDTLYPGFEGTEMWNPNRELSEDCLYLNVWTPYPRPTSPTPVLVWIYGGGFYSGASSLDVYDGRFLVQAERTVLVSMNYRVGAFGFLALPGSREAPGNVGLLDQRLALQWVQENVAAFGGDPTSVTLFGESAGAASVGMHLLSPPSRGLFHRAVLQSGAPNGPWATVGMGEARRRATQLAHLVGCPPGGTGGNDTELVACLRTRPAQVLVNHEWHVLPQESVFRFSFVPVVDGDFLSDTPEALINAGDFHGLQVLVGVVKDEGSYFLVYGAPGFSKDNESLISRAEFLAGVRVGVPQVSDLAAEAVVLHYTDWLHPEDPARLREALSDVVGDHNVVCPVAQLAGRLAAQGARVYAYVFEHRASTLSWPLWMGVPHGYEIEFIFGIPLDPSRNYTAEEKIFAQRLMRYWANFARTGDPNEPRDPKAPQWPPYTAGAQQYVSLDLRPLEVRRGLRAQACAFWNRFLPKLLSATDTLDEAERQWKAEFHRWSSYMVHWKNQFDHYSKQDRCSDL

SMILES: Cc1cc(=O)oc2cc(OCCCOc3cc(Cl)ccc3Oc3ccc(Cl)cc3Cl)ccc12
- inhibition at 20 µg/mL [1]: 34%

SMILES: O=c1oc2ccc(/N=C/c3ccco3)cc2cc1-c1ccc2c(c1)OCO2
- IC50 [2]: 223 µM

SMILES: N=C(N)c1ccc(OCCCCCOc2ccc(C(=N)N)cc2)cc1 [PENTAMIDINE]
- EC50 [3]: 1.41 mg/L (≈ 4.14 µM)
- EC50 [4]: 5.2 mg/L (≈ 15.3 µM)
- EC50 [5]: 1.46 mg/L (≈ 4.29 µM)
- EC50 [6]: 1.75 mg/L (≈ 5.14 µM)

SMILES: CCC(C)C(=O)c1c(O)c(CCC(C)C)c(O)c2c1OC(=O)CC2c1ccccc1 (stereo not given)
- IC50 [7]: 0.9 µM
- IC50 [8]: 0.6 µM
- selectivity ratio [9]: 142

SMILES: Cc1cccc(-n2c(-c3cc4ccccc4oc3=O)cs/c2=N/NC(=O)c2cc3ccccc3oc2=O)c1C
- inhibition at 100 µM [10]: 70.4%
- inhibition at 0.1 µM [11]: 53.9%

SMILES: O=c1cc(-c2ccccc2)c2c(O)cc(O)cc2o1
- IC50 [7]: 60.2 µM

SMILES: CC(=O)OC[C@H]1O[C@@H](Oc2ccc3c(-c4ccccc4)cc(=O)oc3c2)[C@H](OC(C)=O)[C@@H](OC(C)=O)[C@@H]1OC(C)=O
- IC50 [12]: 10 µM
- IC50 [13]: 34.9 µM

SMILES: COc1cc(O[C@@H]2O[C@H](COC(C)=O)[C@@H](OC(C)=O)[C@H](OC(C)=O)[C@H]2OC(C)=O)c2c(-c3ccc(OC(C)=O)c(OC(C)=O)c3)cc(=O)oc2c1
- IC50 [14]: > 90 µM
- IC50 [3]: 12.4 µM

SMILES: C=C1CC(CC(C)(O)C(O)COc2ccc3ccc(=O)oc3c2O)OC1=O (stereo not given)
- IC50 [15]: 12.1 µM

SMILES: COc1cc2ccc(=O)oc2cc1OC [SCOPARONE]
- IC50 [16]: > 50 µM
- inhibition zone (IZ) [17]: 8 mm
- EC50 [3]: 27.5 mg/L (≈ 133 µM)
- EC50 [4]: 21.4 mg/L (≈ 104 µM)
- IC50 [18]: > 50 µM
- EC50 [5]: 14.4 mg/L (≈ 69.7 µM)
- IC50 [19]: > 50 µM
- EC50 [6]: 9.11 mg/L (≈ 44.2 µM)

SMILES: N#CCC1=NN=C(c2cc3ccccc3oc2=O)C(CC(=O)c2ccccc2)O1 (stereo not given)
- inhibition at 50 µM [20]: 36%

SMILES: COc1cc(O[C@@H]2O[C@H](CO)[C@@H](O)[C@H](O)[C@H]2O)c2c(-c3ccc(OC)c(OC)c3)cc(=O)oc2c1
- IC50 [14]: > 90 µM
- IC50 [3]: 10.2 µM

SMILES: CCCc1cc(=O)oc2c(C(=O)C(C)CC)c(O)c(CC=C(C)C)c(O)c12 (stereo not given)
- IC50 [7]: 30.1 µM

SMILES: COC(=O)C1=C(N)Oc2cc(O)c3c(C)cc(=O)oc3c2C1c1ccc([N+](=O)[O-])cc1 (stereo not given)
- IC50 [13]: 33.1 µM

SMILES: CC1CC(CC(C)(O)C(O)COc2ccc3ccc(=O)oc3c2O)OC1=O (stereo not given)
- IC50 [15]: > 100 µM

SMILES: CC1(O)CC(CC(C)(O)C(O)COc2ccc3ccc(=O)oc3c2O)OC1=O (stereo not given)
- IC50 [15]: > 100 µM

SMILES: CNC(=O)Oc1ccc2c(c1)[C@]1(C)CCN(C)[C@@H]1N2C
- inhibition zone (IZ) [17]: 9 mm

SMILES: C=C1CC(C/C(C)=C/COc2ccc3ccc(=O)oc3c2O)OC1=O (stereo not given) [CLAUSLACTONE E]
- IC50 [15]: 9.8 µM

SMILES: CN(C)c1ccc(C(c2c(O)c3ccccc3oc2=O)c2c(O)c3ccccc3oc2=O)cc1
- IC50 [3]: 150 mg/L

SMILES: COC(=O)C1=C(N)Oc2cc(O)c3c(C)cc(=O)oc3c2C1c1ccc(Br)cc1 (stereo not given)
- IC50 [13]: 33.2 µM

SMILES: CCC(C)C(=O)c1c(O)c(CC=C(C)C)c(OC)c2c(-c3ccccc3)cc(=O)oc12 (stereo not given)
- IC50 [7]: 2.4 µM
- IC50 [8]: 34 µM

SMILES: C/C(=C\COc1cc(O)cc2oc(=O)ccc12)C/C=C/C(C)(C)OO
- IC50 [15]: 26.2 µM

SMILES: O=c1oc2ccccc2cc1-c1nnc2n1N=C(c1ccc(Cl)c(Cl)c1)CS2
- IC50 [21]: 0.89 µM

SMILES: Cc1cccc(-n2c(-c3cc4ccccc4oc3=O)cs/c2=N/NC(=O)c2cc3ccccc3oc2=O)c1
- inhibition at 100 µM [10]: 62.7%
- inhibition at 0.1 µM [11]: 53.7%

SMILES: Cc1cccc2cc(C(c3c(O)c4ccccc4oc3=O)N3CCCCC3)c(Cl)nc12 (stereo not given)
- IC50 [3]: 9.9 µM

SMILES: CC1=CC[C@@H]2C(C)(C)[C@H](O)CC[C@@]2(C)[C@@H]1COc1ccc2ccc(=O)oc2c1 [FESELOL]
- IC50 [22]: 8 µM
- IC50 [23]: 6.8 µM
